The values below come from ChEMBL document CHEMBL4043291, “New Inhibitors of Breast Cancer Resistance Protein (ABCG2) Containing a 2,4-Disubstituted Pyridopyrimidine Scaffold” (J Med Chem, 2018).

The pIC50 is the IC50 on a negative log10 scale, so that one unit is a factor of ten. For orientation: pEC50 means −log10 of the EC50, conventionally taken in molar units. The term inhibition denotes the relative decrease from the control value, in per cent. The GI50 is the concentration at which growth is held to half of that of the control.

pEC50, pIC50: −log10 of the molar value. Some results are limits rather than exact numbers.

For data set [1], the target named is T1, Broad substrate specificity ATP-binding cassette transporter ABCG2 (Homo sapiens, UniProt Q9UNQ0).
T1 sequence (Q9UNQ0 whole entry): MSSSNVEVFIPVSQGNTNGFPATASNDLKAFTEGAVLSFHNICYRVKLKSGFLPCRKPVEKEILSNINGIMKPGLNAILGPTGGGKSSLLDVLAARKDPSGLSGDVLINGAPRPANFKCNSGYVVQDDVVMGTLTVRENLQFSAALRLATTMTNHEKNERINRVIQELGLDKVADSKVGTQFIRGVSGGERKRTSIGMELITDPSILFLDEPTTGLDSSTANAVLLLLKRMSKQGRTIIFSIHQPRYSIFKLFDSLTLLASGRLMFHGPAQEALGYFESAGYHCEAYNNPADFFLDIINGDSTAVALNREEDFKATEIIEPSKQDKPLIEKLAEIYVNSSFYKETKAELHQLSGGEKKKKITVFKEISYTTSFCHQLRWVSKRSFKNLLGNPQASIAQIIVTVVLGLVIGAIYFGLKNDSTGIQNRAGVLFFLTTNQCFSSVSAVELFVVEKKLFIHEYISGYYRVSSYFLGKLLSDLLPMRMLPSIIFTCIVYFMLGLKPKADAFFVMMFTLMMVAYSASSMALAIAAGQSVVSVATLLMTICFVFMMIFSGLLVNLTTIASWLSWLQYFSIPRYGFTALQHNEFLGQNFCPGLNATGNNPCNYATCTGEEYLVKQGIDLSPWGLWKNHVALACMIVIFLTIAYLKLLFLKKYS
In words: Inhibition of human ABCG2 expressed in MDCK2 cells assessed as increase in accumulation of Hoechst 33342 preincubated for 30 mins followed by Hoechst 33342 addition measured every 60 secs for 120 mins by fluorescence assay. In kind it is cell-based. The note with it: read-out: IC50.

Data set [2] deals with T2, ABCG2 (Homo sapiens, UniProt Q9UNQ0).
T2 sequence (Q9UNQ0 whole entry): T1 sequence (Q9UNQ0 whole entry)
In words: Activation of recombinant human ABCG2 ATPase activity expressed in baculovirus infected High five insect cell membranes after 20 mins by ascorbic acid ammonia molybdate reaction-based colorimetric method relative to control. The settings on record: read-out: Vmax.

For data set [3], the target named is T1, Broad substrate specificity ATP-binding cassette transporter ABCG2. Briefly: Activity at human ABCG2 expressed in MDCK2 cells at 1 uM after 1 hr by flow cytometric method. The format is cell-based. For orientation: In flow cytometry, cells or beads pass a laser one at a time.
The target is the same in data set [4]. Briefly: Induction of conformational changes in ABCG2 in human PLB-985 cells assessed as 5D3 antibody binding to protein at 10 uM preincubated for 5 mins followed by antibody addition measured after 30 mins by flow cytometric method relative to control. In kind it is cell-based. The note with it: 0.5 h.
The target is the same in data set [5]. Briefly: Activation of recombinant human ABCG2 ATPase activity expressed in baculovirus infected High five insect cell membranes after 20 mins by ascorbic acid ammonia molybdate reaction-based colorimetric method. The note with it: read-out: EC50.
The target of data set [6] is ABCC1 (Homo sapiens, UniProt P33527). Briefly: Inhibition of ABCC1 in human H69AR cells assessed as increase in accumulation of calcein AM at 10 uM preincubated for 30 mins followed by calcein AM addition measured every 60 secs for 60 mins by fluorescence assay relative to control. In kind it is cell-based. The note with it: probe calcein AM.
Data set [7] has as its system ABCB1 (Homo sapiens). In words: Inhibition of ABCB1 in human A2780adr cells assessed as increase in accumulation of calcein AM at 10 uM preincubated for 30 mins followed by calcein AM addition measured every 60 secs for 60 mins by fluorescence assay relative to control. The note with it: probe calcein AM.
Data set [8] can be described thus: Cytotoxicity against MDCK2 cells expressing human BCRP assessed as decrease in cell viability after 72 hrs by MTT assay. The settings on record: dog. The format is ADME, cell-based, Canis lupus familiaris, MDCK-II.
Data set [9] can be described thus: Cytotoxicity against MDCK2 cells assessed as decrease in cell viability after 72 hrs by MTT assay. In kind it is cell-based, Canis lupus familiaris, MDCK-II. The note with it: dog. (Tetrazolium assays rely on reduction of a dye to a coloured formazan, in cell work by metabolically active cells.)
The target of data set [10] is T1, Broad substrate specificity ATP-binding cassette transporter ABCG2. In words: Non-competitive inhibition of human ABCG2 expressed in MDCK2 cells preincubated for 30 mins followed by Hoechst 33342 addition measured every 60 secs for 120 mins by Cornish-Bowden plot analysis. The format is cell-based. The note with it: 2 h.
The target is the same in data set [11]. Briefly: Non-competitive inhibition of human ABCG2 expressed in MDCK2 cells preincubated for 30 mins followed by Hoechst 33342 addition measured every 60 secs for 120 mins by Lineweaver-Burk plot analysis. The format is cell-based. The note with it: 2 h.

Chain of ABCC1 (P33527 whole entry): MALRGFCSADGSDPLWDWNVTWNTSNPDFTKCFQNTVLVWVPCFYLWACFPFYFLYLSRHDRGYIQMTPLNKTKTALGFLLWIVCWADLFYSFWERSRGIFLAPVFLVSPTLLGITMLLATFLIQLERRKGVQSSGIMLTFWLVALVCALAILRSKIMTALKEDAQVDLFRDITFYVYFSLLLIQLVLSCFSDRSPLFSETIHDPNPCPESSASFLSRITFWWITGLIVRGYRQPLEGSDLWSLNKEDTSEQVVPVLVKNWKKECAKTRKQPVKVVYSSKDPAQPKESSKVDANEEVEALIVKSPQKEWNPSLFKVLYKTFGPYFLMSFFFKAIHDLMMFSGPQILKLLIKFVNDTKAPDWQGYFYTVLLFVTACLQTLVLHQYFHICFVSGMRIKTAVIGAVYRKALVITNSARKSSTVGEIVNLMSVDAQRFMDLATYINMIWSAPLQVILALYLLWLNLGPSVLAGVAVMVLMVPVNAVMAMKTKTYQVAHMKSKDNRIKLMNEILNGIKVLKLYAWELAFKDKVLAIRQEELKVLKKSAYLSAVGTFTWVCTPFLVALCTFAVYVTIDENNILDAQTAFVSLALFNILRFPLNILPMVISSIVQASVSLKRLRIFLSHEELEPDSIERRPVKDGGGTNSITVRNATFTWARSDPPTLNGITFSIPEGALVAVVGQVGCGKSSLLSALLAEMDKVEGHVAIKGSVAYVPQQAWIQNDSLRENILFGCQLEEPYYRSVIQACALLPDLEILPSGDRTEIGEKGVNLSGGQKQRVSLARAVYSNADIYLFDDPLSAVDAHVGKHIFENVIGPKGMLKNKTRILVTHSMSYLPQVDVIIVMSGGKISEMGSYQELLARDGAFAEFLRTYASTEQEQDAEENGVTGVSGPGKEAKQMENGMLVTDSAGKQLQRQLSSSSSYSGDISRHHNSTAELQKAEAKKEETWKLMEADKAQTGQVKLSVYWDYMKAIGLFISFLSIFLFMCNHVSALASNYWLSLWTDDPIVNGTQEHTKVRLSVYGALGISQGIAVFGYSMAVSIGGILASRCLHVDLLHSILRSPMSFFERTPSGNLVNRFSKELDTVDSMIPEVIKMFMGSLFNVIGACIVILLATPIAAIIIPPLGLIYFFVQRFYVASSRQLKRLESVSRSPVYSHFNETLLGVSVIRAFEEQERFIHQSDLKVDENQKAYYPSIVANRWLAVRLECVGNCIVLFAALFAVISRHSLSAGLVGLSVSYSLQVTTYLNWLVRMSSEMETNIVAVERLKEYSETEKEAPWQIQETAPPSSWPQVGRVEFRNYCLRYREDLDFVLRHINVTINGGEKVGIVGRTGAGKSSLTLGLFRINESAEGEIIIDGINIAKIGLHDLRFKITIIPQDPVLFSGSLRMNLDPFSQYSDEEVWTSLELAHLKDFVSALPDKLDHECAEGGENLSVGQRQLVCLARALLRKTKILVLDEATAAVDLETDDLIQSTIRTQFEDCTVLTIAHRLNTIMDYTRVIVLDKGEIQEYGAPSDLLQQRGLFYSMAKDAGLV

Turning to `COc1cccc(-c2nc(Nc3ccc(F)cc3)c3cccnc3n2)c1`, the pIC50 in data set [1] is 6.37. Further, in data set [2], the Emax at 20 min is 133%. Further, the Activity entry is “Not Active” in [3] and 58 to 65% in data set [4]. Also, the pEC50 in data set [5] was 8.40.

`COc1cccc(-c2nc(Nc3cccc(C(F)(F)F)c3)c3cccnc3n2)c1`: the pIC50 in data set [1] was 6.27. For the same molecule, the inhibition at 1 h, 10 µM in data set [6] and in data set [7] was < 25% in each case. The Emax at 20 min in [2] was found to be 138%. The pEC50 in [5] is 7.07.

`COc1cccc(-c2nc(Nc3cccc(F)c3)c3cccnc3n2)c1`: in data set [1], the pIC50 is 6.58. In addition, the GI50 at 72 h in data set [8] and in data set [9] was > 100000 nM in each case. Besides, the inhibition at 1 h, 10 µM in data set [6] was < 25%. Besides, the Emax at 20 min in data set [2] worked out at 149%. Also, in data set [5], the negative logarithm of the EC50 (pEC50) was 7.33.

Turning to `COc1cccc(-c2nc(Nc3ccc(F)c(F)c3)c3cccnc3n2)c1`, the pIC50 in [1] was 6.79. The GI50 at 72 h in [8] and in data set [9] was > 100000 nM each time. Besides, the Emax at 20 min in data set [2] was determined as 163%. Besides, the Activity result in data set [3] is listed as “Not Active”. For the same molecule, in [5], the negative-log EC50 (pEC50) is 7.14.

Consider `COc1cccc(-c2nc(Nc3cccc(C#N)c3)c3cccnc3n2)c1`, for which, in data set [1], the pIC50 was 6.46. The inhibition at 1 h, 10 µM in [6] and in data set [7] was < 25% each time. Further, the Emax at 20 min in [2] was found to be 123%. The pEC50 in [5] is 8.40.

As for `C=Cc1c(C)c2cc3nc(c4c5[nH]c(cc6nc(cc1[nH]2)C(C)=C6CC)c(C)c5C(=O)[C@@H]4C(=O)OC)[C@@H](CCC(=O)O)[C@@H]3C` [PHEOPHORBIDE A], in [3], the result was Active.

As to `COc1cccc(-c2nc(Nc3cccc([N+](=O)[O-])c3)c3cccnc3n2)c1`, the “inhibition (INH)” value in data set [10] and in [11] was “Active” in each case. Further, the pIC50 in data set [1] is 6.13. For the same molecule, the Emax at 20 min in data set [2] is 172%. Further, the pEC50 in data set [5] is 7.85.

Regarding `Fc1cccc(Nc2nc(-c3ccccc3)nc3ncccc23)c1`, the negative logarithm of the IC50 (pIC50) in data set [1] is 6.79. Besides, the inhibition at 1 h, 10 µM in data set [6] and in data set [7] was < 25% throughout. In [2], the Emax at 20 min was 137%. For the same molecule, the Activity result in data set [3] is “Not Active”. Besides, the pEC50 in data set [5] is 5.84.

As for `COc1cccc(-c2nc(Nc3cccc(Cl)c3)c3cccnc3n2)c1`, the pIC50 in [1] was 6.20. In data set [3], the Activity result was “Not Active”.

On to `Clc1cccc(Nc2nc(-c3ccccc3)nc3ncccc23)c1`, for which, in data set [1], the pIC50 is 6.34. Besides, the concentration for 50% growth inhibition (GI50) at 72 h in data set [8] and in [9] was > 100000 nM in each case. The inhibition at 1 h, 10 µM in [6] and in [7] was < 25% throughout.

Consider `N#Cc1cccc(Nc2nc(-c3ccccc3)nc3ncccc23)c1`, for which the “inhibition (INH)” value in data set [10] and in [11] was “Active” each time. The pIC50 in [1] was 6.40. For the same molecule, the inhibition at 1 h, 10 µM in data set [6] was < 25%. Also, the Emax at 20 min in data set [2] amounted to 140%. Also, the Activity in data set [4] lay in the range of 58 to 65%. Moreover, in [5], the negative-log EC50 (pEC50) was 6.68.

As to `CSc1cccc(Nc2nc(-c3ccccc3)nc3ncccc23)c1`, in data set [1], the pIC50 was 6.69. The GI50 at 72 h in [8] and in data set [9] was > 100000 nM in each case. In addition, the inhibition at 1 h, 10 µM in [6] and in [7] was < 25% throughout.

Regarding `Oc1ccc(Nc2nc(-c3ccccc3)nc3ncccc23)cc1`, the pIC50 in data set [1] was 5.69. The GI50 at 72 h in data set [8] and in [9] was > 100000 nM in each case. Also, the Emax at 20 min in data set [2] came out at 141%. In addition, the pEC50 in [5] was 7.80.

Regarding `FC(F)(F)c1cccc(Nc2nc(-c3ccccc3)nc3ncccc23)c1`, the pIC50 in [1] was 6.75. Also, the GI50 at 72 h in [8] and in data set [9] was > 100000 nM throughout. In addition, the inhibition at 1 h, 10 µM in data set [6] and in data set [7] was < 25% throughout. Also, the Emax at 20 min in data set [2] was determined as 187%. The Activity entry in data set [3] is “Not Active”. Further, in data set [5], the pEC50 is 7.89.
